Assay results taken from publication PMC12503911, “Cytotoxicity of Atropisomeric [1,1′‐Binaphthalene]‐2,2′‐Diamines (BINAM) and Analogs in Human Cancer Cells: Enantioselectivity, Structure–Activity Relationships, and Mechanism” (Chemmedchem, 2025).
Like-named read-outs stand apart in the source and are kept apart here.

Legend:
Assay in all cases: biochemical
Set-up in all cases: 33PanQinase radiometric kinase activity assay, residual activity in % of control, contract lab Reaction Biology
Details in all cases: mean of intraexperimental duplicates, n = 1
LIMK2 = LIMK2 (Homo sapiens, UniProt P53671)
Sequence of LIMK2 (P53671 whole entry): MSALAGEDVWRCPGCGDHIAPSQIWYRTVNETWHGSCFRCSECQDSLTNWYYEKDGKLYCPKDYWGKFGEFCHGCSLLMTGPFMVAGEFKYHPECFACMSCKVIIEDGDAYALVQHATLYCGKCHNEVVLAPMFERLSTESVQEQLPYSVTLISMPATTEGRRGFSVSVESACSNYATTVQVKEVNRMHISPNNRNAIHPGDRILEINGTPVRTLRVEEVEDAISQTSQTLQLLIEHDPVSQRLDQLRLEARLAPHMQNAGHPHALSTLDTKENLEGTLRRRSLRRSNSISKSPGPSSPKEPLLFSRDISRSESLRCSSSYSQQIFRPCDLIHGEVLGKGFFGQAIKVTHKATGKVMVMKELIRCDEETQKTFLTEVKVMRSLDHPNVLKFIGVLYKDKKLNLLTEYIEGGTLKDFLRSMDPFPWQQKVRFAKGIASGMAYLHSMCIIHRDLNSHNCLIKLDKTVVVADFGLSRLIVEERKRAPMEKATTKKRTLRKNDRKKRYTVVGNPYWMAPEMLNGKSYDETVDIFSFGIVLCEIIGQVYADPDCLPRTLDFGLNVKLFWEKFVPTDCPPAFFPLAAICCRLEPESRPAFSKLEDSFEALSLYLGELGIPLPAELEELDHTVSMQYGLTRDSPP
Protocol: (§1) Kinase Screening was performed at Reaction Biology (Freiburg, Germany) by using the ^33PanQinase Assay.^[ [90] ^] Based on this knowledge, we commissioned a kinase screening by the firm Reaction Biology, targeting those kinases whose inhibition has shown an indirect effect on microtubules. In our selection, we included additional kinases that are known to be involved in centrosome amplification (PLK4^[ [82] ^]), centrosome clustering (CDK1/2,^[ [83] ^] PLK1^[ [84] ^]), spindle multipolarity (SRC^[ [85] ^]), microtubule dynamics (AKT1^[ [86] ^]), and LIMK1/2 activation (ROCK1^[ [87] ^]) or are crucial for the mitosis (BUB1B, NEK2/9, WEE1^[ [88] ^]). Nonetheless, 1(R) and 1(S) at 10 µM had almost no inhibitory effects on any of the chosen kinases (Table 4 ). Only Aurora A (mean residual activity for 1(R): 86%, 1(S): 98%) and ASK1 (mean residual activity for 1(R): 90%, 1(S): 117%) were slightly enantioselectively impacted. However, we theorize that those marginal inhibitions are not explanatory for the antiproliferative and morphological effects of 1(R) on cancer cells.

AuroraC = molecular target: T1, AuroraC (Homo sapiens, UniProt Q9UQB9)
T1 construct: gene AURKC
T1 sequence (Q9UQB9 1-309): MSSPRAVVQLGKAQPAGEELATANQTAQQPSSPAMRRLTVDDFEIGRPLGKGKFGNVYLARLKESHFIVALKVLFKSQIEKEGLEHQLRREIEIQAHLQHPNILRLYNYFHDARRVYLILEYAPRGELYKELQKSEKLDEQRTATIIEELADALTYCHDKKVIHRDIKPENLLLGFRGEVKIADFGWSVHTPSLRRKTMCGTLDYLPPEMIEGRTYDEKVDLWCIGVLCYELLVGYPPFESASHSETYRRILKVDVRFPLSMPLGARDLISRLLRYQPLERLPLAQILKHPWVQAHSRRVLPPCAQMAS
Protocol: as §1

CDK2/CycA2 = CDK2/CycA2 (Homo sapiens, UniProt P24941)
Protocol: as §1

CHK1 = molecular target: T2, CHK1 (Homo sapiens, UniProt O14757)
T2 construct: gene CHEK1
T2 sequence (O14757 1-476): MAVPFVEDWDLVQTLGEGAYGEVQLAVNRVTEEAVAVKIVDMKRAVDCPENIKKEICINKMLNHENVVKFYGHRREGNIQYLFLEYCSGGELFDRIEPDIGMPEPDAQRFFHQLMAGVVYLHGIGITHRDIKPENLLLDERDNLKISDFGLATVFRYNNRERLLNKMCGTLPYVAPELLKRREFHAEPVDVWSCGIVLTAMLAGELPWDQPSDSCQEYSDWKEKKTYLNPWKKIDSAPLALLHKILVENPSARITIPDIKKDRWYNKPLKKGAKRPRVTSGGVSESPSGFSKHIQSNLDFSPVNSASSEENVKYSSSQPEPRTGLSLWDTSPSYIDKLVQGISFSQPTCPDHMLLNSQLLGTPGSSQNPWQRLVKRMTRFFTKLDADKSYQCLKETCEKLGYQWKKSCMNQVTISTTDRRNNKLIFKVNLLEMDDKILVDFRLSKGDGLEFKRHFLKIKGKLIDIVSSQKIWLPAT
Protocol: as §1

PLK4 = molecular target: T3, PLK4 (Homo sapiens, UniProt O00444)
T3 sequence (O00444 1-970): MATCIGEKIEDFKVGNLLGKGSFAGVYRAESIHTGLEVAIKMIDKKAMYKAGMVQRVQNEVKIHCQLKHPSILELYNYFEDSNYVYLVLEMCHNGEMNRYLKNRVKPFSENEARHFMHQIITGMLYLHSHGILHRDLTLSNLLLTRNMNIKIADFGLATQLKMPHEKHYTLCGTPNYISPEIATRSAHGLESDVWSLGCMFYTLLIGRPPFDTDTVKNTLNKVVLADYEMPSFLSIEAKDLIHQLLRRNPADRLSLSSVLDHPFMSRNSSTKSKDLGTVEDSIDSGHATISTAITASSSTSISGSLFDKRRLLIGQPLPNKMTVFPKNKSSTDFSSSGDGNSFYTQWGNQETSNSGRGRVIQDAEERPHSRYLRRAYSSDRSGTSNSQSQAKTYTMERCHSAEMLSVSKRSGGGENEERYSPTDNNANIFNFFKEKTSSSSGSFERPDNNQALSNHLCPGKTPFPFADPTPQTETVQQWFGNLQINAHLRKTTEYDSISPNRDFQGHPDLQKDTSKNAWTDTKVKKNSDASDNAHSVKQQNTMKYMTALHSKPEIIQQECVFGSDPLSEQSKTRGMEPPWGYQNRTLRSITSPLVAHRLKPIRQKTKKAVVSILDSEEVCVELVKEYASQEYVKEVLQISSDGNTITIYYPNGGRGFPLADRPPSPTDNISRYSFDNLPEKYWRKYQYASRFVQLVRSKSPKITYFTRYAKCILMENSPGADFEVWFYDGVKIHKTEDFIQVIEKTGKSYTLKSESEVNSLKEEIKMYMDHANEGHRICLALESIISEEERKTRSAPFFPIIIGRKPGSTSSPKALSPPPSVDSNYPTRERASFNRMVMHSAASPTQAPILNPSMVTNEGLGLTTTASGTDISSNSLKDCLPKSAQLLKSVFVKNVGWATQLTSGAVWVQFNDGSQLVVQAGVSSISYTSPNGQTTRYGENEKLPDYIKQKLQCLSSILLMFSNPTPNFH
Protocol: as §1

CHK2 = molecular target: T4, CHK2 (Homo sapiens, UniProt O96017)
T4 construct: gene CHEK2
T4 sequence (O96017 whole entry): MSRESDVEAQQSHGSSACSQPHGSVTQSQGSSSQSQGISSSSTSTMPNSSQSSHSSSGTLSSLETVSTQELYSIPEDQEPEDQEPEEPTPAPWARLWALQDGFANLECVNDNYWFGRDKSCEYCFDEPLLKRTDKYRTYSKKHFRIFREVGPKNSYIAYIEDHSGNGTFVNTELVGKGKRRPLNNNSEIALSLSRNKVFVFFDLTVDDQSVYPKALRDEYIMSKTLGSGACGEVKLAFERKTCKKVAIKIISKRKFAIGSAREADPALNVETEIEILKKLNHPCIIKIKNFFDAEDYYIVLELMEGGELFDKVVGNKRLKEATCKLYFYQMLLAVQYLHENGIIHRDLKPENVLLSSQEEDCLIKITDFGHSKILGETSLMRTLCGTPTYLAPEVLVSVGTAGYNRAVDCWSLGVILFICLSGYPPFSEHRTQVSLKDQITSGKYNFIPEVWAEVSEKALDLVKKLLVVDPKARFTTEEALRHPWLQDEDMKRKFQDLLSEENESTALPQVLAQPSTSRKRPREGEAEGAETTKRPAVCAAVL
Protocol: as §1

[1] = read-out: Residual activities [% of control] / 1(R) 10 µM
[2] = read-out: Residual activities [% of control] / 1(S) 10 µM

| remaining activity at 10 µM (LIMK2; [1]) [%] | remaining activity at 10 µM (AuroraC; [1]) [%] | remaining activity at 10 µM (CDK2/CycA2; [1]) [%] | remaining activity at 10 µM (CHK1; [1]) [%] | remaining activity at 10 µM (PLK4; [1]) [%] | remaining activity at 10 µM (CHK2; [1]) [%] | remaining activity at 10 µM (LIMK2; [2]) [%] | remaining activity at 10 µM (AuroraC; [2]) [%] | remaining activity at 10 µM (CDK2/CycA2; [2]) [%] | remaining activity at 10 µM (CHK1; [2]) [%] | remaining activity at 10 µM (PLK4; [2]) [%] | remaining activity at 10 µM (CHK2; [2]) [%] | Compound |
| --- | --- | --- | --- | --- | --- | --- | --- | --- | --- | --- | --- | --- |
| 106 | 101 | 95 | 94 | 97 | 97 |  |  |  |  |  |  | Nc1ccc2ccccc2c1-c1c(N)ccc2ccccc12 [1(R), (R)‐[1,1′‐binaphthalene]‐2,2′‐diamine] |
|  |  |  |  |  |  | 98 | 100 | 92 | 95 | 99 | 104 | Nc1ccc2ccccc2c1-c1c(N)ccc2ccccc12 [1(S), S‐BINAM] |
